Results from patent US20230183237A1, “COMPETITIVE AND NONCOMPETITIVE INHIBITORS OF THE MUSCARINIC ACETYLCHOLINE RECEPTOR M5” (Vanderbilt University, priority 2020, published 2023).
Like-named read-outs stand apart in the source and are kept apart here.

Molecular target: T1, hM5 (Homo sapiens, UniProt P08912)
T1 construct: expressed in transfected cells
T1 sequence (P08912 1-532): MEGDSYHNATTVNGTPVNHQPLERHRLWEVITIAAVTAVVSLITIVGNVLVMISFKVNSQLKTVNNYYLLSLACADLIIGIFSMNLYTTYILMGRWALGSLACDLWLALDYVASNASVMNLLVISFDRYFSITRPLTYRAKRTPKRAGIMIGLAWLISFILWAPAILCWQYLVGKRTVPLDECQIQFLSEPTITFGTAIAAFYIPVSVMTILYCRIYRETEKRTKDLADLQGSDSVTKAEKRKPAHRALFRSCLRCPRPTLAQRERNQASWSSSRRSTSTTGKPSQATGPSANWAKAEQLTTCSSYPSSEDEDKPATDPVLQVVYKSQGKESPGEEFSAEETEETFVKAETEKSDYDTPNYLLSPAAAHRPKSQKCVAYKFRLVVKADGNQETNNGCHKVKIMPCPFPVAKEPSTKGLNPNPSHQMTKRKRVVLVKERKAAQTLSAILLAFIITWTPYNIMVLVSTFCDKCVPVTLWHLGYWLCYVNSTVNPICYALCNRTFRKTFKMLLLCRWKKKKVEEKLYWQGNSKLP
Experiment: Calcium mobilization concentration-response (IC50 vs EC80 acetylcholine), CHO hM5
Assay type: cell-based
Details: CELL LINE hM5, read-out: IC50
In short: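 IC50 values derive from percent maximal acetylcholine response after an EC80 ACh addition, measured as kinetic calcium fluorescence (static ratio, max−min). Test compounds were added 140 s before agonist. Cells: stable hM5-CHO in HEPES-buffered HBSS with 2.5 mM probenecid, pH 7.4; ≥3 independent triplicate determinations.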

[1] = calcium mobilization, EC80 acetylcholine addition

SMILES	IC50 [1] [µM]	IC50 (vs EC80 acetylcholine) [µM]
O=S(=O)(c1cc2c(cc1F)OCC2)N1CCC(c2ccc3ncnn3c2)CC1 [Compound 61, 6-(1-((6-fluoro-2,3-dihydrobenzofuran-5-yl)sulfonyl)piperidin-4-yl)-[1,2,4]triazolo[1,5-a]pyridine]	> 10	
Cc1cc2ncnn2nc1C1CCN(S(=O)(=O)c2c(C)nn(C)c2Cl)CC1 [Compound 179, 6-(1-((5-chloro-1,3-dimethyl-1H-pyrazol-4-yl)sulfonyl)piperidin-4-yl)-7-methyl-[1,2,4]triazolo[1,5-b]pyridazine]	0.066	
O=S(=O)(c1ccc2ncccc2c1)N1CCC(c2cc3cc[nH]c3cn2)CC1 [Compound 26, 6-((4-(1H-pyrrolo[2,3-c]pyridin-5-yl)piperidin-1-yl)sulfonyl)quinoline]	> 10	
O=S(=O)(c1cnc2sccn12)N1CCC(c2cn3ncnc3cc2C(F)F)CC1 [Compound 515, 5-((4-(7-(difluoromethyl)-[1,2,4]triazolo[1,5-a]pyridin-6-yl)piperidin-1-yl)sulfonyl)imidazo[2,1-b]thiazole]		0.034
O=S(=O)(c1cnn2ccccc12)N1CCC(c2cn3ncnc3cc2C(F)F)CC1 [Compound 510, 7-(difluoromethyl)-6-(1-(pyrazolo[1,5-a]pyridin-3-ylsulfonyl)piperidin-4-yl)-[1,2,4]triazolo[1,5-a]pyridine]		0.06
Cc1c(S(=O)(=O)N2CC=C(c3cc4c(cc3Cl)OCO4)CC2)cnn1C [Compound 350, 4-(6-chlorobenzo[d][1,3]dioxol-5-yl)-1-((1,5-dimethyl-1H-pyrazol-4-yl)sulfonyl)-1,2,3,6-tetrahydropyridine]	0.011	
CCc1cc2ncnn2cc1C1CCN(S(=O)(=O)c2cc(C)ns2)CC1 [Compound 493, 5-((4-(7-ethyl-[1,2,4]triazolo[1,5-a]pyridin-6-yl)piperidin-1-yl)sulfonyl)-3-methylisothiazole]		0.065
Cc1cc2ncnn2cc1C1(O)CCN(S(=O)(=O)c2cnc(C)n2C)CC1 [Compound 309, 1-((1,2-dimethyl-1H-imidazol-5-yl)sulfonyl)-4-(7-methyl-[1,2,4]triazolo[1,5-a]pyridin-6-yl)piperidin-4-ol]	> 10	
Cc1cnccc1C1CCN(S(=O)(=O)c2cnn(C)c2Cl)CC1 [Compound 429, 4-(1-((5-chloro-1-methyl-1H-pyrazol-4-yl)sulfonyl)piperidin-4-yl)-3-methylpyridine]		0.398
Cc1cc2ncnn2cc1[C@@H]1CCN(S(=O)(=O)c2cnn3c2CCCC3)C[C@H]1O (racemic) [Compound 270, (rac)-trans-4-(7-methyl-[1,2,4]triazolo[1,5-a]pyridin-6-yl)-1-((4,5,6,7-tetrahydropyrazolo[1,5-a]pyridin-3-yl)sulfonyl)piperidin-3-ol]	0.105	
CC(C)Oc1c(S(=O)(=O)N2CCC(c3cn4ncnc4cc3Cl)CC2)cnn1C [Compound 604, 7-chloro-6-(1-((5-isopropoxy-1-methyl-1H-pyrazol-4-yl)sulfonyl)piperidin-4-yl)-[1,2,4]triazolo[1,5-a]pyridine]		0.159
Cc1sc(C(N)=O)nc1C1CCN(S(=O)(=O)c2ccc3c(c2)CCO3)CC1 [Compound 211, 4-(1-((2,3-dihydrobenzofuran-5-yl)sulfonyl)piperidin-4-yl)-5-methylthiazole-2-carboxamide]	> 10	
Cc1cc2ncccc2cc1C1CCN(S(=O)(=O)c2cnn(C)c2C)CC1 [Compound 418, 6(1-((1,5-dimethyl-1H-pyrazol-4-yl)sulfonyl)piperidin-4-yl)-7-methylquinoline]		0.032
Cc1cc2ncnn2cc1C1CCN(S(=O)(=O)c2scnc2C)CC1 [Compound 601, 4-methyl-5-((4-(7-methyl-[1,2,4]triazolo[1,5-a]pyridin-6-yl)piperidin-1-yl)sulfonyl)thiazole]		5.24

Continued, values first:

IC50 [1] [µM]	IC50 (vs EC80 acetylcholine) [µM]	SMILES
0.018		O=S(=O)(c1c(Cl)nc2sccn12)N1CCC(c2cn3ncnc3cc2Cl)CC1 [Compound 344, 6-chloro-5-((4-(7-chloro-[1,2,4]triazolo[1,5-a]pyridin-6-yl)piperidin-1-yl)sulfonyl)imidazo[2,1-b]thiazole]
0.017		Cc1cc2c(cc1C1CCN(S(=O)(=O)c3cnn(C)c3C)CC1)OCO2 [Compound 371, 1-((1,5-dimethyl-1H-pyrazol-4-yl)sulfonyl)-4-(6-methylbenzo[d][1,3]dioxol-5-yl)piperidine]
0.618		Cc1cc2ncnn2cc1C1CCN(S(=O)(=O)c2cnn3c2CCC3)C(C)C1 (stereo not shown) [Compound 363, 6-(1-((5,6-dihydro-4H-pyrrolo[1,2-b]pyrazol-3-yl)sulfonyl)-2-methylpiperidin-4-yl)-7-methyl-[1,2,4]triazolo[1,5-a]pyridine]
	0.234	Cn1cc(S(=O)(=O)N2CCC(c3cn4ncnc4cc3C(F)(F)F)CC2)nn1 [Compound 563, 6-(1-((1-methyl-1H-1,2,3-triazol-4-yl)sulfonyl)piperidin-4-yl)-7-(trifluoromethyl)-[1,2,4]triazolo[1,5-a]pyridine]
> 10		O=S(=O)(c1ccc2ncsc2c1)N1CCC(c2ccc3ncnn3c2)CC1 [Compound 62, 6-((4-([1,2,4]triazolo[1,5-a]pyridin-6-yl)piperidin-1-yl)sulfonyl)benzo[d]thiazole]
0.052		Cn1ncc(S(=O)(=O)N2CCC(c3cn4ncnc4cc3Cl)CC2)c1C(F)(F)F [Compound 330, 7-chloro-6-(1-((1-methyl-5-(trifluoromethyl)-1H-pyrazol-4-yl)sulfonyl)piperidin-4-yl)-[1,2,4]triazolo[1,5-a]pyridine]
1.3		Cc1nc2cc(C)c(C3CCN(S(=O)(=O)c4cc5c(cc4C)OCC5C)CC3)cn2n1 (stereo not shown) [Compound 87]
	0.972	CCc1cc2ncnn2cc1C1CCN(S(=O)(=O)c2cn(C)nn2)CC1 [Compound 562, 7-ethyl-6-(1-((1-methyl-1H-1,2,3-triazol-4-yl)sulfonyl)piperidin-4-yl)-[1,2,4]triazolo[1,5-a]pyridine]
	> 10	Cc1c(S(=O)(=O)N2CCC(c3cn4ncnc4cc3C(=O)N(C)C)CC2)cnn1C [Compound 471, 6-(1-((1,5-dimethyl-1H-pyrazol-4-yl)sulfonyl)piperidin-4-yl)-N,N-dimethyl-[1,2,4]triazolo[1,5-a]pyridine-7-carboxamide]
	0.072	Cc1cc2nccnc2cc1C1CCN(S(=O)(=O)c2cnn(C)c2C)CC1 [Compound 425, 6-(1-((1,5-dimethyl-1H-pyrazol-4-yl)sulfonyl)piperidin-4-yl)-7-methylquinoxaline]
	> 10	CCc1cc2ncnn2cc1C1CCN(S(=O)(=O)c2nncn2C)CC1 [Compound 514, 7-ethyl-6-(1-((4-methyl-4H-1,2,4-triazol-3-yl)sulfonyl)piperidin-4-yl)-[1,2,4]triazolo[1,5-a]pyridine]
0.149		O=S(=O)(c1ccc2c(c1)CCO2)N1CC=C(c2cn3ncnc3cc2Cl)CC1 [Compound 139, 7-chloro-6-(1-((2,3-dihydrobenzofuran-5-yl)sulfonyl)-1,2,3,6-tetrahydropyridin-4-yl)-[1,2,4]triazolo[1,5-a]pyridine]
8.15		Cc1c(S(=O)(=O)N2CCC(c3cn4ncnc4cc3OC(F)(F)F)CC2)cnn1C [Compound 378, 6-(1-((1,5-dimethyl-1H-pyrazol-4-yl)sulfonyl)piperidin-4-yl)-7-(trifluoromethoxyl)-[1,2,4]triazolo[1,5-a]pyridine]
> 10		Cc1cn2cc(C3CCN(S(=O)(=O)c4ccc5c(c4)CCO5)CC3)ncc2n1 [Compound 18, 6-(1-((2,3-dihydrobenzofuran-5-yl)sulfonyl)piperidin-4-yl)-2-methylimidazo[1,2-a]pyrazine]
0.849		Cn1ncc(S(=O)(=O)N2CCC(c3cc(F)c4ncnn4c3)CC2)c1Cl [Compound 382, 6-(1-((5-chloro-1-methyl-1H-pyrazol-4-yl)sulfonyl)piperidin-4-yl)-8-fluoro-[1,2,4]triazolo[1,5-a]pyridine]
0.019		Cn1ncc(S(=O)(=O)N2CCC(c3cn4ncnc4cc3Cl)CC2)c1C(F)F [Compound 295, 7-chloro-6-(1-((5-(difluoromethyl)-1-methyl-1H-pyrazol-4-yl)sulfonyl)piperidin-4-yl)-[1,2,4]triazolo[1,5-a]pyridine]
0.036		Cc1c(S(=O)(=O)N2CCC(c3cn4ncnc4cc3Cl)CC2)cnn1C [Compound 291, 7-chloro-6-(1-((1,5-dimethyl-1-pyrazol-4-yl)sulfonyl)piperidin-4-yl)-[1,2,4]triazolo[1,5-a]pyridine]
5.2		Cn1cc(S(=O)(=O)N2CCC(c3cn4ncnc4cc3C(F)(F)F)CC2)c(C(F)(F)F)n1 [Compound 99, 6-(1-((1-methyl-3-(trifluoromethyl)-1H-pyrazol-4-yl)sulfonyl)piperidin-4-yl)-7-(trifluoromethyl)-[1,2,4]triazolo[1,5-a]pyridine]
> 10		Cc1cc2ncnn2nc1C1CCN(S(=O)(=O)c2ccc3ncsc3c2)CC1 [Compound 185, 6-((4-(7-methyl-[1,2,4]triazolo[1,5-b]pyridazin-6-yl)piperidin-1-yl)sulfonyl)benzo[d]thiazole]
0.325		Cc1cc2ncnn2cc1C1CCN(S(=O)(=O)c2c3ccccc3nn2C)CC1 [Compound 150, 7-methyl-6-(1-((2-methyl-2H-indazol-3-yl)sulfonyl)piperidin-4-yl)-[1,2,4]triazolo[1,5-a]pyridine]
